Five compounds from EP0325279A1, “Dehydrocholecalciferol derivatives” (F. HOFFMANN-LA ROCHE AG, priority 1988, dated 1989) can be followed below.

Where “and” joins values, the source holds several entries; their conditions need not be identical. Identical values can stand only once.

Assay type in all cases: cell-based
In test [1] the test system is menschlicher promyelocytischer Tumorzellen HL-60. The test can be described thus: Differentiation-inducing (DI) effect on HL-60 cells. The settings on record: for EC50: Homo sapiens, concentration that causes 50% differentiation of the cells, read-out: ED50 (the source's name). From the text:
(§1) Zum Nachweis der Aktivität der Verbindungen der Formel I als Mittel zur Behandlung von neoplastischen Krankheiten wurden die antiproliferativen (AP) und die Differenzierung induzierenden Effekte (DI) der Verbindungen A bis F sowie die Anzahl menschlicher promyelocytischer Tumorzellen HL-60 ermittelt. In Tabelle 6 ist der AP Effekt als prozentuale Reduktion der Anzahl Zellen und als Konzentration ID₅₀, die die Zellenanzahl um 50% reduziert, angegeben. Der DI Effekt ist angegeben als Prozentsatz der differenzierten Zellen und als Konzentration ED₅₀ der Verbindungen, die eine 50%ige Differenzierung der Zellen bewirkt.

The test system is the same in test [2]. The test can be described thus: Antiproliferative (AP) effect on HL-60 cells. The settings on record: for IC50: Homo sapiens, concentration that reduces the cell number by 50%, read-out: ID50 (the source's name).
Excerpt: as §1

Test [3] relates to gezüchteten menschlichen Keratinocyten. Kind of test: Morphological differentiation of cultured human keratinocytes (cell counts by cell type).
[4] abbreviates: Konzentration 0.1 (head prints x10 M).
Where [5] appears, read: Konzentration 1 (head prints x10 M).
Where [6] appears, read: Konzentration 10 (head prints x10 M).
Where [7] appears, read: Konzentration 100 (head prints x10 M).
Where [8] appears, read: Konzentration 1000 (head prints x10 M).
[9] abbreviates: Konzentration 0.01 (head prints x10 M).

Consider `C=C1CC[C@H](O)C/C1=C/C=C1\CCC[C@]2(C)C([C@H](C)CCCC(C)(C)O)=CC[C@@H]12` [Verbindung B, 25-Hydroxy-16-dehydrocholecalciferol], for which the EC50 in test [1] is 320 nM. Moreover, the “Differenzierte Zellen (%)” value in test [1] (setting [4]) is given as 5%; in test [1] (setting [5]), 4%; in test [1] (setting [6]) it was 6%; in test [1] (setting [7]), 93%; in test [1] (setting [8]), 95%. For the same compound, the IC50 in test [2] amounted to 350 nM. Also, the “% Reduktion der Anzahl Zellen” value is given as 10% in test [2] (setting [4]); 8% in test [2] (setting [5]); 14% in test [2] (setting [6]); 82% in test [2] (setting [7]); 95% in test [2] (setting [8]). For the same compound, the “Anzahl Zellen (x10⁴): Basalzellen” value in test [3] (Dosis 10⁻¹⁰ M) is recorded as 15±5 x10⁴; in test [3] (Dosis 10⁻⁶ M), 74±3 x10⁴; in test [3] (Dosis 10⁻⁸ M), 109±2 x10⁴. Also, the figures for the “Anzahl Zellen (x10⁴): Gesamtanzahl” value in test [3] (Dosis 10⁻¹⁰ M), in test [3] (Dosis 10⁻⁶ M) and in test [3] (Dosis 10⁻⁸ M) were 133±6 x10⁴, 104±4 x10⁴ and 131±4 x10⁴, respectively. Further, the “Anzahl Zellen (x10⁴): Plattenepithelzellen” value is 18±1 x10⁴ in test [3] (Dosis 10⁻¹⁰ M), 30±1 x10⁴ in test [3] (Dosis 10⁻⁶ M) and 22±2 x10⁴ in test [3] (Dosis 10⁻⁸ M). Further, the “Anzahl Zellen (x10⁴): verhornte Plattenepithelzellen” value in test [3] (Dosis 10⁻¹⁰ M) stood at 25±1 x10⁴; in test [3] (Dosis 10⁻⁶ M), 33±1 x10⁴; in test [3] (Dosis 10⁻⁸ M), 29±2 x10⁴.
As to `C=C1CC[C@H](O)C/C1=C/C=C1\CCC[C@]2(C)C([C@H](C)CC#CC(C)(C)O)=CC[C@@H]12` [Verbindung F, 25-Hydroxy-16-dehydro-23-didehydrocholecalciferol], the EC50 in test [1] worked out at 700 nM. Besides, the “Differenzierte Zellen (%)” value in test [1] (setting [4]) worked out at 4%; in test [1] (setting [5]) it was 12%; in test [1] (setting [6]), 21%; in test [1] (setting [7]) it was 55%; in test [1] (setting [8]) it was 91%. For the same compound, the IC50 in test [2] stood at 700 nM. Further, the “% Reduktion der Anzahl Zellen” value in test [2] (setting [4]) is recorded as 13%; in test [2] (setting [5]), 10%; in test [2] (setting [6]), 8%; in test [2] (setting [7]) it was 58%; in test [2] (setting [8]) it was 95%. Besides, the “Anzahl Zellen (x10⁴): Basalzellen” value in test [3] (Dosis 10⁻¹⁰ M) worked out at 81±3 x10⁴; in test [3] (Dosis 10⁻⁶ M), 55±2 x10⁴; in test [3] (Dosis 10⁻⁸ M) it was 67±2 x10⁴. Also, the “Anzahl Zellen (x10⁴): Gesamtanzahl” value in test [3] (Dosis 10⁻¹⁰ M) stood at 103±5 x10⁴; in test [3] (Dosis 10⁻⁶ M), 84±4 x10⁴; in test [3] (Dosis 10⁻⁸ M) it was 97±3 x10⁴. The “Anzahl Zellen (x10⁴): Plattenepithelzellen” value is given as 22±2 x10⁴ in test [3] (Dosis 10⁻¹⁰ M), 29±1 x10⁴ in test [3] (Dosis 10⁻⁶ M) and 29±1 x10⁴ in test [3] (Dosis 10⁻⁸ M). For the same compound, the figures for the “Anzahl Zellen (x10⁴): verhornte Plattenepithelzellen” value in test [3] (Dosis 10⁻¹⁰ M), in test [3] (Dosis 10⁻⁶ M) and in test [3] (Dosis 10⁻⁸ M) were 103±4 x10⁴, 137±7 x10⁴ and 121±6 x10⁴, respectively.
As to `C=C1/C(=C\C=C2/CCC[C@]3(C)C([C@H](C)C/C=C/C(C)(C)O)=CC[C@@H]23)C[C@@H](O)C[C@@H]1O` [Verbindung C, 1,25-Dihydroxy-16,23E-bisdehydrocholecalciferol], in test [1], the EC50 was determined as 3 nM. For the same compound, the “Differenzierte Zellen (%)” value in test [1] (setting [9]) was 3%; in test [1] (setting [4]) it was 19%; in test [1] (setting [5]) it was 92%; in test [1] (setting [6]) it was 97%; in test [1] (setting [7]) it was 99%. In addition, in test [2], the IC50 turned out to be 3 nM. Moreover, the “% Reduktion der Anzahl Zellen” value in test [2] (setting [9]) came to 18%; in test [2] (setting [4]) it was 20%; in test [2] (setting [5]), 81%; in test [2] (setting [6]) it was 85%; in test [2] (setting [7]), 86%. Moreover, the entries for the “Anzahl Zellen (x10⁴): Basalzellen” value in test [3] (Dosis 10⁻¹⁰ M), in test [3] (Dosis 10⁻⁶ M) and in test [3] (Dosis 10⁻⁸ M) were 92±2 x10⁴, 54±6 x10⁴ and 80±2 x10⁴, respectively. Further, the “Anzahl Zellen (x10⁴): Gesamtanzahl” value worked out at 117±4 x10⁴ in test [3] (Dosis 10⁻¹⁰ M), 80±7 x10⁴ in test [3] (Dosis 10⁻⁶ M) and 108±3 x10⁴ in test [3] (Dosis 10⁻⁸ M). Also, the “Anzahl Zellen (x10⁴): Plattenepithelzellen” value in test [3] (Dosis 10⁻¹⁰ M) turned out to be 25±2 x10⁴; in test [3] (Dosis 10⁻⁶ M), 26±1 x10⁴; in test [3] (Dosis 10⁻⁸ M), 28±1 x10⁴. Also, the “Anzahl Zellen (x10⁴): verhornte Plattenepithelzellen” value came out at 103±6 x10⁴ in test [3] (Dosis 10⁻¹⁰ M), 153±1 x10⁴ in test [3] (Dosis 10⁻⁶ M) and 128±3 x10⁴ in test [3] (Dosis 10⁻⁸ M).
Consider `C=C1/C(=C\C=C2/CCC[C@]3(C)[C@@H]([C@H](C)CCCC(C)(C)O)CC[C@@H]23)C[C@@H](O)C[C@@H]1O` [Verbindung X, 1,25-Dihydroxychalecalciferol, reference compound], for which the EC50 in test [1] amounted to 20 nM. Moreover, the “Differenzierte Zellen (%)” value in test [1] (setting [9]) was determined as 3%; in test [1] (setting [4]) it was 11%; in test [1] (setting [5]), 19%; in test [1] (setting [6]), 68%; in test [1] (setting [7]), 98%. Besides, the IC50 in test [2] was determined as 20 nM. For the same compound, the “% Reduktion der Anzahl Zellen” value in test [2] (setting [9]) is given as 6%; in test [2] (setting [4]) it was 5%; in test [2] (setting [5]) it was 16%; in test [2] (setting [6]), 66%; in test [2] (setting [7]), 84%. Besides, the “Anzahl Zellen (x10⁴): Basalzellen” value in test [3] (Dosis 10⁻¹⁰ M) is 103±2 x10⁴ and 95±8 x10⁴ and 86±6 x10⁴; in test [3] (Dosis 10⁻⁶ M), 64±6 x10⁴ and 57±4 x10⁴ and 51±5 x10⁴; in test [3] (Dosis 10⁻⁸ M) it was 89±2 x10⁴ and 75±8 x10⁴ and 61±5 x10⁴. For the same compound, the “Anzahl Zellen (x10⁴): Gesamtanzahl” value in test [3] (Dosis 10⁻¹⁰ M) is 122±4 x10⁴ and 116±9 x10⁴ and 106±7 x10⁴; in test [3] (Dosis 10⁻⁶ M), 95±7 x10⁴ and 83±5 x10⁴ and 73±7 x10⁴; in test [3] (Dosis 10⁻⁸ M), 112±6 x10⁴ and 101±10 x10⁴ and 84±8 x10⁴. For the same compound, the “Anzahl Zellen (x10⁴): Plattenepithelzellen” value is 19±2 x10⁴ and 21±1 x10⁴ and 18±1 x10⁴ in test [3] (Dosis 10⁻¹⁰ M); 31±1 x10⁴ and 26±1 x10⁴ and 22±2 x10⁴ in test [3] (Dosis 10⁻⁶ M); 23±4 x10⁴ and 26±2 x10⁴ and 23±3 x10⁴ in test [3] (Dosis 10⁻⁸ M).
Take `C=C1CC[C@H](O)C/C1=C/C=C1\CCC[C@]2(C)C([C@H](C)C/C=C/C(C)(C)O)=CC[C@@H]12` [Verbindung D, 25-Hydroxy-16,23E-bisdehydrocholecalciferol]: the EC50 in test [1] was 2000 nM. Besides, the “Differenzierte Zellen (%)” value in test [1] (setting [4]) worked out at 1%; in test [1] (setting [5]), 2%; in test [1] (setting [6]), 17%; in test [1] (setting [7]) it was 31%; in test [1] (setting [8]) it was 97%. In addition, in test [2], the IC50 was determined as 1500 nM. For the same compound, the “% Reduktion der Anzahl Zellen” value came out at 12% in test [2] (setting [4]); 12% in test [2] (setting [5]); 17% in test [2] (setting [6]); 46% in test [2] (setting [7]); 95% in test [2] (setting [8]). Further, the “Anzahl Zellen (x10⁴): Basalzellen” value in test [3] (Dosis 10⁻¹⁰ M) is 93±6 x10⁴; in test [3] (Dosis 10⁻⁶ M), 68±1 x10⁴; in test [3] (Dosis 10⁻⁸ M) it was 86±3 x10⁴. Besides, the “Anzahl Zellen (x10⁴): Gesamtanzahl” value in test [3] (Dosis 10⁻¹⁰ M) worked out at 113±7 x10⁴; in test [3] (Dosis 10⁻⁶ M), 94±3 x10⁴; in test [3] (Dosis 10⁻⁸ M), 111±7 x10⁴. The “Anzahl Zellen (x10⁴): Plattenepithelzellen” value in test [3] (Dosis 10⁻¹⁰ M) worked out at 20±1 x10⁴; in test [3] (Dosis 10⁻⁶ M), 26±2 x10⁴; in test [3] (Dosis 10⁻⁸ M), 25±2 x10⁴. Also, the “Anzahl Zellen (x10⁴): verhornte Plattenepithelzellen” value turned out to be 104±10 x10⁴ in test [3] (Dosis 10⁻¹⁰ M), 144±7 x10⁴ in test [3] (Dosis 10⁻⁶ M) and 128±5 x10⁴ in test [3] (Dosis 10⁻⁸ M).
